Assay results reported in patent US9242996B2 (Novartis AG, priority 2013, dated 2016).

Experiments:
[1] = target: ERK2 (Homo sapiens (Human), UniProt P28482); experiment: ERK2 Alphascreen; format: biochemical
[2] = target: activated ERK2 (Homo sapiens (Human), UniProt P28482); experiment: Activated ERK2 kinase assay, ERK2 New conditions (AlphaScreen, ERKtide phosphorylation); format: biochemical; details: 0.25 nM ERK2, 200 nM ERKtide peptide, 35 μM ATP, 30 min preincubation
Method in brief: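 Read-out is AlphaScreen with anti-phospho-EGFR (Thr669) antibody after EDTA quench and overnight dark incubation. Reaction: 0.25 nM ERK2, 30 min compound preincubation, then 200 nM ERKtide plus 35 µM ATP for 2–3 h at ambient temperature, pH 7.5. IC50 by four-parameter fit.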

activated ERK2, sequence (P28482 whole entry): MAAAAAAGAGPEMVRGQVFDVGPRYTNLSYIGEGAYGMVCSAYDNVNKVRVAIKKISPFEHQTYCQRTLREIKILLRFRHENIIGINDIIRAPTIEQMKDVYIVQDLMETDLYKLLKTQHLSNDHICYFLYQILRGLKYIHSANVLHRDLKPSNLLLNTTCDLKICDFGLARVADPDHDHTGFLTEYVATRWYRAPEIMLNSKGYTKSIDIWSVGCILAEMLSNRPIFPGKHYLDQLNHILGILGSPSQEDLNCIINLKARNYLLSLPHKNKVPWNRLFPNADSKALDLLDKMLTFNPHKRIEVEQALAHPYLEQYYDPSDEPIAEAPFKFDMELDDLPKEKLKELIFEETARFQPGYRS
ERK2, sequence (P28482 whole entry, species assumed): as the sequence (P28482 whole entry) above

Structure (SMILES) | IC50 [1] [nM] | IC50 [2] [nM]
CN(Cc1ccccc1)C(=O)c1ccc(-c2nc(C3CCOCC3)cnc2N)cc1F [Example 52, 4-(3-amino-6-(tetrahydro-2H-pyran-4-yl)pyrazin-2-yl)-N-benzyl-2-fluoro-N-methylbenzamide] | 31.2 | 30.3
Nc1ncc(C2CCOCC2)nc1-c1ccc(C(=O)NCc2ccccc2)c(F)c1 [Example 324, 4-(3-amino-6-(tetrahydro-2H-pyran-4-yl)pyrazin-2-yl)-N-benzyl-2-fluorobenzamide] | 6.17 | 6.83
Nc1ncc(C2CCOCC2)cc1-c1ccc(C(=O)N[C@H](CO)c2ccccc2)cc1Cl [Example 68, (S)-4-(2-amino-5-(tetrahydro-2H-pyran-4-yl)pyridin-3-yl)-3-chloro-N-(2-hydroxy-1-phenylethyl)benzamide] | 214 | 314
Nc1ncc(C2CCOCC2)cc1-c1ccc(C(=O)NCc2cnccn2)c(F)c1 [Example 75, 4-(2-amino-5-(tetrahydro-2H-pyran-4-yl)pyridin-3-yl)-2-fluoro-N-(pyrazin-2-ylmethyl)benzamide] | 1160 | 1220
C[C@@H]1CN(c2cnc(N)c(-c3ccc(C(=O)N[C@H](CO)c4ccccc4)cc3)c2)C[C@H](C)O1 [Example 97, 4-(2-amino-5-((2S,6R)-2,6-dimethylmorpholino)pyridin-3-yl)-N-((S)-2-hydroxy-1-phenylethyl)benzamide] | 110 | 233
Cc1cnccc1-c1cnc(N)c(-c2ccc(C(=O)N[C@H](CO)c3ccccc3)c(F)c2)c1 [Example 83, (S)-4-(6-amino-3′-methyl-3,4′-bipyridin-5-yl)-2-fluoro-N-(2-hydroxy-1-phenylethyl)benzamide] | 0.574 | 0.752
Nc1ncc(C2CCOCC2)nc1-c1ccc(C(=O)N[C@H](CO)c2ccccc2)cc1 [Example 1, (S)-4-(3-amino-6-(tetrahydro-2H-pyran-4-yl)pyrazin-2-yl)-N-(2-hydroxy-1-phenylethyl)benzamide] | 1.06 | 1.63
Nc1ncc(C2CCOCC2)nc1-c1ccc(C(=O)NC[C@@H](O)c2ccccc2)c(F)c1 [Example 333, (S)-4-(3-amino-6-(tetrahydro-2H-pyran-4-yl)pyrazin-2-yl)-2-fluoro-N-(2-hydroxy-2-phenylethyl) benzamide] | 33.8 | 34.6
